Values of other authors as cited in US11332491B2, “E-selectin antagonist compounds, compositions, and methods of use” (GLYCOMIMETICS, INC., priority 2011, dated 2022).

Tested on: human AML engrafted in NODscid IL2Rgc-/- mice
Conditions: ASH 2011 abstracts

Q: For c1cc(CN2CCCNCCNCCCNCC2)ccc1CN1CCCNCCNCCCNCC1 [plerixafor], which “mobilization of human AML” value is on record?
A: approximately 2 fold
